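All cell lines were grown in 96-well plates and treated with compound for 48 hours. GI50 = concentration required for 50% inhibition of growth.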 The source made the active and inactive calls. Rule as the data show it: active = GI50 up to about 1.1 µM and inactive = higher. Bounds are passed on as bounds.

What all share (test): NCI anticancer screen, dose series, 48 h
In assay [1] the test system is SNB-75.
Assay [2] relates to SF-295.
The subject of assay [3] is T47D.
Assay [4] deals with ACHN.
The subject of assay [5] is NCI-H23.
Assay [6] has as its system TK-10.
Assay [7] concerns MDA-N.
In assay [8] the test system is OVCAR-5.
In assay [9] the test system is MDA-MB-435.
Assay [10] concerns CAKI-1.
The test system of assay [11] is SNB-19.
In assay [12] the test system is OVCAR-3.
Assay [13] deals with OVCAR-8.
Assay [14] has as its system A549.
The test system of assay [15] is HL-60.
The test system of assay [16] is SK-MEL-2.
The test system of assay [17] is SF-268.
Assay [18] deals with NCI-H226.
Assay [19] relates to SN12C.
Assay [20] relates to Malme-3M.

In the case of `Cc1sc(NC=C2C(=O)CC(C)(C)CC2=O)nc1-c1ccccc1`, the GI50 in assay [1], in assay [2], in [3], in assay [4], in [5] and in assay [6] was > 100 µM (inactive) throughout. Besides, the GI50 in assay [7], in assay [8], in assay [9], in assay [10], in [11] and in assay [12] was > 100 µM (inactive) throughout. In addition, the GI50 in assay [13] was > 100 µM (inactive); in assay [14], > 100 µM (inactive); in assay [15], 2.17 µM (inactive); in [16] it was > 100 µM (inactive); in assay [17] it was > 100 µM (inactive); in assay [18], > 100 µM (inactive). The GI50 in assay [19] is > 100 µM (inactive).
As for `CN(COC(=O)c1ccccc1)c1nc(N(C)COC(=O)c2ccccc2)nc(N(C)COC(=O)c2ccccc2)n1`, the GI50 is > 94.6 µM (inactive) in assay [1]; 23.9 µM (inactive) in [2]; 28.8 µM (inactive) in [3]; 21.2 µM (inactive) in [4]; 41.5 µM (inactive) in [5]; 20.3 µM (inactive) in assay [6]. The GI50 in [7] was > 100 µM (inactive); in assay [8], > 100 µM (inactive); in assay [9] it was > 100 µM (inactive); in assay [10] it was 57.7 µM (inactive); in assay [11], 16.5 µM (inactive); in assay [12], > 84.1 µM (inactive). For the same molecule, the GI50 in [13] was 39.4 µM (inactive); in assay [20], > 100 µM (inactive); in [14], > 100 µM (inactive); in [15], > 100 µM (inactive); in [17], 21.8 µM (inactive); in [18], 30.4 µM (inactive). Further, the GI50 in assay [19] is > 100 µM (inactive).
For the molecule `COC(=O)c1ccc(C)cc1CC1Cc2cccc(C)c2C1=O` (configuration not stated), the GI50 is 5.02 µM (inactive) in assay [1]; 6.49 µM (inactive) in assay [2]; 5.85 µM (inactive) in [3]; 18.8 µM (inactive) in [4]; 11.1 µM (inactive) in assay [5]; 12.9 µM (inactive) in assay [6]. Also, the GI50 was 1.87 µM (inactive) in assay [7]; 14 µM (inactive) in assay [8]; 1.48 µM (inactive) in assay [9]; 10.6 µM (inactive) in assay [10]; 4.4 µM (inactive) in assay [11]; 4.95 µM (inactive) in assay [12]. The GI50 in assay [13] is 5.08 µM (inactive); in assay [20], 5.97 µM (inactive); in assay [14], 6.58 µM (inactive); in assay [16], 4.34 µM (inactive); in [17], 7.98 µM (inactive); in assay [18] it was 3.83 µM (inactive). Moreover, in assay [19], the GI50 is 10.2 µM (inactive).
In the case of `CC1CC(NN(C)C)C2(C(N)=O)C(N)=NC(=O)C12C#N` (configuration not stated), the GI50 in [1] is 10 µM (inactive); in assay [2] it was > 100 µM (inactive); in assay [3], > 100 µM (inactive); in assay [4], > 100 µM (inactive); in [5], > 100 µM (inactive); in assay [6] it was > 100 µM (inactive). Also, the GI50 in assay [7], in assay [8], in [9], in assay [10], in [11] and in assay [13] was > 100 µM (inactive) each time. Also, the GI50 was > 100 µM (inactive) in [20]; > 100 µM (inactive) in assay [14]; > 10 µM (inactive) in assay [15]; > 100 µM (inactive) in [16]; > 100 µM (inactive) in [17]; > 100 µM (inactive) in assay [18]. Also, in assay [19], the GI50 is > 100 µM (inactive).
For `CCOC(=O)c1sc2c(c1OC(=O)c1cc(OC)c(OC)c(OC)c1)c(=O)n(-c1ccccc1)c(=S)n2-c1ccccc1`, the GI50 is > 100 µM (inactive) in assay [1]; > 100 µM (inactive) in [2]; 41.6 µM (inactive) in [3]; > 100 µM (inactive) in [4]; 53.1 µM (inactive) in assay [5]; > 100 µM (inactive) in assay [6]. Besides, the GI50 is > 100 µM (inactive) in [7]; > 100 µM (inactive) in assay [8]; 79.1 µM (inactive) in assay [9]; > 100 µM (inactive) in [10]; > 100 µM (inactive) in assay [11]; 87.7 µM (inactive) in [12]. Moreover, the GI50 in assay [13] was 74.8 µM (inactive); in [20] it was > 100 µM (inactive); in assay [14] it was > 100 µM (inactive); in assay [15] it was 62.8 µM (inactive); in assay [17], > 100 µM (inactive); in [18], > 100 µM (inactive). Moreover, the GI50 in [19] was 90.2 µM (inactive).
On to `CCCCCCCC(CC(=O)NC(CO)C(=O)NC(CO)CC(C)C)OC(=O)CC(CCCCCCC)OC(=O)CC(CCCCCCC)OC1OC(C)C(O)C(OC2OC(C)C(O)C(O)C2OC(C)=O)C1O` (configuration not stated), for which the GI50 in assay [1] is 4.29 µM (inactive); in assay [2], 10 µM (inactive); in [3], 6.52 µM (inactive); in assay [4], 15.5 µM (inactive); in [5] it was 7.8 µM (inactive); in assay [6], 13.3 µM (inactive). The GI50 in assay [7] is 3.46 µM (inactive); in assay [8], 10.3 µM (inactive); in assay [9], 2.75 µM (inactive); in assay [10], 14.7 µM (inactive); in assay [11], 8.26 µM (inactive); in [12], 12.9 µM (inactive). Moreover, the GI50 in assay [13] was 7.35 µM (inactive); in assay [20] it was 10.9 µM (inactive); in [14] it was 12.3 µM (inactive); in [15], 3 µM (inactive); in assay [17] it was 5.89 µM (inactive); in assay [18], 20.5 µM (inactive). Also, the GI50 in assay [19] was 4.47 µM (inactive).
For the molecule `CC(C)(C)OC(=O)n1c(-c2ccccc2F)cc(=O)c2cc3c(cc21)OCO3`, the GI50 in assay [1] was 0.0318 µM (active); in [2], 0.05 µM (active); in assay [3], 16.8 µM (inactive); in [4] it was 0.186 µM (active); in assay [5], 0.398 µM (active); in assay [6] it was 4.66 µM (inactive). Also, the GI50 in assay [7] is < 0.01 µM (active); in [8], 6.53 µM (inactive); in assay [9] it was 0.0214 µM (active); in assay [11] it was 0.145 µM (active); in [12], 0.03 µM (active); in assay [13], 0.0906 µM (active). Moreover, the GI50 in assay [20] is 0.0526 µM (active); in assay [14], 0.103 µM (active); in assay [15], 0.0451 µM (active); in assay [16], 0.0531 µM (active); in assay [17], 0.191 µM (active); in assay [18], 0.0791 µM (active).
In the case of `COc1ccc2c(c1)nc1n2C(c2c(F)cccc2Cl)SC1` (configuration not stated), the GI50 in assay [1] was 1.68 µM (inactive); in [2] it was 2.74 µM (inactive); in assay [3] it was 3.32 µM (inactive); in [4] it was 20.8 µM (inactive); in assay [5] it was 3.59 µM (inactive); in assay [6], > 25.9 µM (inactive). The GI50 in assay [7] was 1.35 µM (inactive); in assay [8], > 37.2 µM (inactive); in assay [9] it was 0.703 µM (active); in assay [10], 19.1 µM (inactive); in assay [13], 3.92 µM (inactive); in assay [20], 1.02 µM (active). For the same molecule, the GI50 in assay [14] is 4.81 µM (inactive); in assay [15], 1.26 µM (inactive); in [17], 3.66 µM (inactive); in assay [18], 4.75 µM (inactive); in [19], > 22.6 µM (inactive).
Regarding `CCOC(=O)c1c(-c2cccc3ccccc23)c(C#N)c(=S)n(C2OC(COC(C)=O)C(OC(C)=O)C(OC(C)=O)C2OC(C)=O)c1C` (configuration not stated), the GI50 in [1] is 13.7 µM (inactive); in assay [2], > 100 µM (inactive); in assay [3] it was > 100 µM (inactive); in assay [4] it was > 100 µM (inactive); in assay [5] it was > 100 µM (inactive); in assay [6] it was > 100 µM (inactive). Also, the GI50 in [7], in assay [8], in [9], in assay [11], in [12] and in assay [13] was > 100 µM (inactive) each time. Also, the GI50 in assay [20] was > 100 µM (inactive); in assay [14] it was > 100 µM (inactive); in assay [15], > 100 µM (inactive); in assay [16], 64.1 µM (inactive); in assay [17], > 100 µM (inactive); in [18] it was > 100 µM (inactive). In addition, the GI50 in assay [19] is > 100 µM (inactive).
`Cc1ccc(NC(=S)NNC(=O)c2cc(-c3ccccc3)nc3ccccc23)cc1`: the GI50 was 12.2 µM (inactive) in assay [1]; 5.92 µM (inactive) in [2]; 3.21 µM (inactive) in [3]; 16.3 µM (inactive) in assay [4]; 12.6 µM (inactive) in assay [5]; 14 µM (inactive) in assay [6]. Besides, the GI50 in assay [7] was 4.26 µM (inactive); in assay [8], 15.4 µM (inactive); in assay [9] it was 2.81 µM (inactive); in assay [10] it was 18 µM (inactive); in assay [11], 16.7 µM (inactive); in assay [12], 7.89 µM (inactive). Besides, the GI50 in assay [13] was 18.3 µM (inactive); in [20] it was 6.35 µM (inactive); in assay [14], 11.9 µM (inactive); in [16], 10.3 µM (inactive); in assay [17] it was 15.8 µM (inactive); in assay [18] it was 18.7 µM (inactive). Also, the GI50 in [19] is 16.2 µM (inactive).

These data come from ChEMBL document CHEMBL1201862, “PubChem BioAssay data set” (2004).
